Results on one compound are retold here after PMC8741257, “Identification of novel non-toxic and anti-angiogenic α-fluorinated chalcones as potent colchicine binding site inhibitors” (Journal of Enzyme Inhibition and Medicinal Chemistry, 2022).

Test [1] has as its system microtubule network of MGC-803 cells. Kind of test: Immunofluorescent staining of the cellular microtubule network. It counts as cell-based, human. To be noted: 18, 36, and 72 nM. As for the experimental part:
Since tubulin-microtubule system plays a crucial role in mechanical solidity, cell motility and mitosis, an immunofluorescent staining assay was further carried out in MGC-803 cells to evaluate the inhibitory effects of 4c on microtubule cytoskeleton. […] Upon treatment with higher concentrations of 4c, the dispersed tubulin dimers were even more obvious and there is no tubular structure left.
MGC-803 cells (3 × 10^4 cells/well) were seeded into 6 well-plates and then treated with vehicle control 0.1% DMSO and 4c (18, 36, 72nΜ). The cells were rinsed twice with PBS and fixed by 4% paraformaldehyde for 20 min. Subsequently, microtubule detection was performed using a fluorescent antibody against α-tubulin in 5% BSA and incubated for 5 ∼ 6 h at room temperature. To stain cell nucleus, crystals were incubated with Hoechst for 10 min. After washing with PBST to remove redundant stain, the samples were visualised under an Olympus laser scanning confocal microscope.

The test system of test [2] is Caspase -3/-7/-9 and PARP in MGC-803 cells. Kind of test: Western blot of apoptosis-related proteins. Format: cell-based, human. To be noted: 18, 36 and 72 nM, 48 h. As for the experimental part: The Caspase family proteins are considered to be critical regulators of cell apoptosis, in which Caspase-3 is one of the most important "executioner" of apoptosis induction, capable of cleaving many important cellular matrices and represent the hallmark of apoptosis. To explore the apoptosis-associated protein alterations, the expression of Caspase -3/-7/-9 and PARP was analysed.
The protein levels in MGC-803 cells were assessed via western blot analysis. Exponentially growing MGC-803 cells were seeded at a density of 6 × 10^5/dishes and incubated overnight. Then 18, 36, 72nΜ of 4c were added in triplicate for 48 h incubation. After the cells were washed with cold PBS, the supernatant was removed. The supernatant was collected by centrifuging at 12,000 g for 10 min at 4 °C. The protein concentration in the supernatant was determined by using a BSA protein assay kit. Samples were prepared in SDS-PAGE loading buffer after BSA analysis to quantify proteins, then boiled for 10 min at 100 °C. Western blot analyses were conducted after separation by SDS-PAGE electrophoresis and transfer to nitrocellulose filter (NC) membranes. Immunoblotting was performed according to the antibody manufacturers’ recommendations.

A further test relates to MMP of MGC-803 cells. Kind of test: Mitochondrial membrane potential (JC-1, flow cytometry). It counts as cell-based, human. To be noted: 72 nM, 48 h. Here is the method: There is a close relationship between mitochondria and apoptosis, and a decrease in mitochondrial membrane potential is one of the irreversible events that occur early in apoptosis cells. Therefore, effect of compound 4c on MMP of MGC-803 cells was examined by cationic JC-1 staining method and flow cytometry.
The cultured cells were spread in 6-well plates with about 1.5 × 10^5 cells per well and incubated overnight at 37 °C. Different concentrations of the 4c were added to the wells, and the incubation was continued for 48 h. The wells were washed twice with JC-1 staining buffer (1×) after resuspension with an appropriate amount of JC-1 staining buffer (1×), flow cytometry assays were performed according to standard procedures

In another test the test system is ROS in MGC-803 cells. Kind of test: Intracellular ROS generation (DCFH-DA, flow cytometry). It counts as cell-based, human. To be noted: 72 nM, 48 h, control 0.17%. As for the experimental part:
It is now generally accepted that mitochondrial dysfunction is the main source of elevated ROS levels, accompanied by changes in mitochondrial membrane potential and activation of downstream Caspases. To further evaluate the alterations of intracellular ROS levels after cells exposed to 4c, flow cytometry was analysed with 2′,7′-Dichlorodihydrofluorescein diacetate (DCFH-DA) as fluorescent probe. As shown in Figure 7(B), 4c induced intracellular ROS generation in a dose-dependent manner. […] According to above-mentioned results, we can deduce that 4c induced cell apoptosis through a variety of ways including the disruption of the mitochondrial membrane potential, accumulation of intracellular ROS level and regulation of apoptosis-related proteins expression in cancer cells.
Load the probe and dilute DCFH-DA with serum-free culture medium at 1:1000 to a final concentration of […]. Spread the cultured cells in a 6-well plate with about 1.5 × 10^5 cells per well and incubate overnight at 37 °C. After 48 h of incubation with 4c (18, 36, 72nΜ) the cell culture medium was removed and diluted DCFH-DA was added and incubated for 20 min at 37 °C in an incubator, and the mixture was inverted every 3–5 min. […] Add 200 μL of PBS for resuspension, place on ice, and subsequently assay by flow cytometry using standard procedures.

Test [3] relates to HUVECs (human umbilical vein endothelial cells). Kind of test: Transwell cell invasion assay. It counts as cell-based. The conditions noted are these: 2.5, 5 and 10 µM, 24 h. As for the experimental part: HUVECs (human umbilical vein endothelial cells) grown on Matrigel were commonly used as a tube formation model for studying the physiological and pathological processes of the vascular system in vitro, and a widely studied human endothelial cell type in angiogenesis. The effect of 4c on endothelial cell migration was assessed by using HUVECs. Standardised wounds were made in confluent monolayers of HUVECs and then exposed to compound 4c at 2.5, 5 and 10 µM for 48 h. […] We further evaluated the capacity of 4 s on endothelial cell invasion using a Transwell assay.
Matrix gel was thawed overnight at 4 °C. […] Then the cells were washed three times with PBS and fixed cells by 4% paraformaldehyde for 30 min. Subsequently, 0.2% crystal violet solution was added, stained for 30 min, and the invasion of cells was observed under the microscope. Transwell was placed into a 24-well plate, 35% acetic acid (300 μL) was added to the upper chamber of the chamber, and after acetic acid completely entered the lower chamber, 100 μL of acetic acid from the lower chamber was aspirated into a 96-well plate, and three replicate wells of each concentration were shaken for 10 min, and the absorbance was measured at 560 nm with an enzyme marker.

In the next test the test system is HUVECs. Briefly: Tube formation assay on Matrigel. Format: cell-based, human. The conditions noted are these: 2.5 µM. Here is the method:
The formation of HUVEC tube represents the key steps in angiogenesis. Thus, we further tested the anti-vascular activity of 4c by performing a tube formation assay. As shown in Figure 10 HUVECs in the control group formed integrated tubules with multicentric junctions on the Matrigel matrix, while the tubes were fragmentary after exposure to 4c.
The matrix gel was thawed overnight at 4 °C and then added to 96 well plates. After incubated at 37 °C for 45 min, the matrix gel was solidified. Different concentrations of 4c were added to each well at the density of HUVECs was 1 × 10^5/well. After incubated at 37 °C for 6–8 h, the formation of tubules was observed under microscope

Each structure is given as a SMILES string.

Take `COc1cc(C(=O)/C(F)=C/c2c[nH]c3cc(Br)ccc23)cc(OC)c1OC` [4c, (Z)-3–(6-bromo-1H-indol-3-yl)-2-fluoro-1–(3,4,5-trimethoxyphenyl)prop-2-en-1-one]: the “Effect on cellular microtubule network” value in test [1] is “remarkable disruption of microtubule reticular network”. The “cleaved Caspase-3/-7/-9 expression” value in test [2] is given as “up-regulation of cleaved Caspase-3/-7/-9”. Further, in the test on MMP of MGC-803 cells (control 7.13), the “JC-1 green fluorescence intensity (lower gate)” value worked out at 55.6%. For the same compound, the “JC-1 red fluorescence intensity (upper gate)” value with MMP of MGC-803 cells (control 92.4) was determined as 41.3%. For the same compound, in the test on ROS in MGC-803 cells, the “FITC-A+ (ratio of DCF positive cells)” value is listed as 93.6%. Besides, the “number of cells invaded into lower chamber” value in test [3] was “gradually decreased in a dose-dependent manner”. In addition, the “HUVEC cord formation, tube area and length” value in the test on HUVECs was “dramatically suppressed”.
